≈ marks a conversion by molar mass, not a printed value. Where “and” joins values, the source holds several entries; their conditions need not be identical. Equal entries are not always repeated. Where two headings read alike, the source gives them in different places.
How the values were obtained:
[1] = Impact of γ-irradiation on BTZ-043 in lung cryosections of treated mice (LC-MS/MS, MALDI imaging)
[2] = for ng BTZ-043 / mg cryosection: individual cryosections; for BTZ-043 concentration in lung cryosections: Mtb-infected IL-13tg mice, 10 daily doses 250 mg/kg, one mouse each, n=5 cryosections, 250 mg/kg
[3] = In vitro permeability assay in Caco-2 monolayers; conditions: human, Caco-2
Caco-2 cell monolayers [4] = assay: In vitro permeability assay in Caco-2 monolayers; conditions: direction AB, time 60 min
Caco-2 cell monolayers [5] = system: Caco-2 cell monolayers
Mtb H37Rv = assay: BTZ-043 treatment for 10 days of Mtb-infected IL-13tg mice (pulmonary CFU); assay type: in vivo, Mycobacterium tuberculosis
H37Rv = conditions: in vitro, against H37Rv; cited from earlier work
[6] = BALB/c, mouse, in vivo
[7] = LCM coupled LC-MS/MS of necrotic granulomas and non-necrotic regions; assay type: in vivo, IL-13tg mice; conditions: for concentration at 4 h: IL-13tg, mouse, oral
Protocol: Necrotic granulomas and non-necrotic regions were dissected from 2 to 3 γ−irradiated serial lung cryosections (thickness: 12 µm) using a PALM Microbeam (Zeiss, Oberkochen, Germany). Laser-dissected tissues were captured in an ascorbic acid solution (2.5 mg/mL) to prevent the degradation of BTZ-043 and stored at -80 °C. Samples were thawed on ice before drying in the SpeedVac. For reconstitution 80 µL of an 80% ACN/ 20% FA, containing 20 ng/mL reserpine and d4-BTZ-043, were added. The samples were vortexed for 1 min and kept in an ultrasonic bath for 3 min. Subsequently, the samples were centrifuged (10 min, 15,000 × g). The supernatant was transferred into a glass vial and 5 µL was injected into the LC. The LC settings and MS parameters were the same as described for the tissue mimetics (Supplementary Methods). As internal standard d4-BTZ-043 was utilized, with the m/z-transitions 436.0 → 86.0 (cone voltage of 30 V, collision energy of 30 eV, dwell time of 0.2 s) as quantifier. With the expected very low concentrations of the analyte in the LCM material, the deuterated standard was applied to better mimic matrix effects and recovery for this analysis. For calibration curve preparation lung homogenate from drug-naïve mice was added to 80% ACN/20% FA (1%), containing reserpine (as QC) and d4-BTZ-043 (20 ng/mL per sample) to the final solution containing about 0.44 µg tissue/mL, which equals the average weight of the obtained material of the LCM. After centrifugation (5 min, 15,000 × g) the supernatant was spiked with BTZ-043 to yield a calibration curve ranging from 0.00015–0.025 µg/mL.

in vitro = conditions: human
Mtb [8] = system: Mtb; design: method as in PMID 28821804; conditions: NOS2-deficient mice, 50 mg/kg/day, cited from earlier work
in vivo = conditions: IL-13tg, mouse, oral, 250 mg/kg
Mtb [9] = system: Mtb; design: method as in PMID 37791784, PMID 34370580; conditions: in vitro, ref PMID 37791784, PMID 34370580; cited from earlier work
Mtb [10] = assay: Lesional efficacy: LCM of necrotic core and Mtb 16S rRNA molecular bacterial load assay (MBLA); assay type: in vivo, Mycobacterium tuberculosis; conditions: for CFU / mm3 (MBLA): BTZ-043 [250 mg/kg], individual mice, 250 mg/kg
[11] = IL-13tg mice, 250 mg/kg/day, 10 days
[12] = LCM flakes from adjacent area (non necrotic), 4h post administration, listed as BTZ

SMILES: C[C@H]1COC2(CCN(c3nc(=O)c4cc(C(F)(F)F)cc([N+](=O)[O-])c4s3)CC2)O1 [BTZ-043]
- concentration at 1 h ([1]; BALB/c, mouse, 250 mg/kg/day, ng/mg lung cryosection, measurement 2, no gamma irradiation, 1h after BTZ administration, naïve BALB/c 250 mg/kg/day 5 days, single cryosection): 1400 ng/g
- ng/mg lung cryosection, Mean ([1]; gamma irradiation, 1h after BTZ administration, naïve BALB/c 250 mg/kg/day 5 days, single cryosection): 13.81 ng/mg lung cryosection
- impact of γ-irradiation on the concentration and distribution of BTZ-043 ([1]; lung tissue cryosections, 5.85 kGy): does not impact
- ng BTZ-043 / mg cryosection ([2]; 2 h after administration, mouse KW116 B9#1 (male)): 1.02 ng / mg cryosection and 0.92 ng / mg cryosection and 0.62 ng / mg cryosection
- ng BTZ-043 / mg cryosection ([2]; 8 h after administration, mouse KW116 B15#1 (female)): 0.27 ng / mg cryosection (2×) and 0.21 ng / mg cryosection and 0.36 ng / mg cryosection
- pulmonary drug concentrations in lung cryosections ([2]; IL-13tg mice, until 8 h after administration): 270 to 1940 ng/g
- BTZ-043 concentration in lung cryosections ([2]; 0.5 h after last administration): 1.32 ± 0.33 ng/mg cryosection
- BTZ-043 concentration in lung cryosections ([2]; 2 h after last administration): 1.10 ± 0.25 ng/mg cryosection
- BTZ-043 concentration in lung cryosections ([2]; 4 h after last administration): 0.79 ± 0.12 ng/mg cryosection and 1.94 ± 0.37 ng/mg cryosection
- BTZ-043 concentration in lung cryosections ([2]; 8 h after last administration): 0.27 ± 0.05 ng/mg cryosection and 0.65 ± 0.06 ng/mg cryosection
- pulmonary BTZ-043 concentrations relative to the MIC ([2]; all time points investigated (0.5-8 h), n=8 mice): substantially higher than the MIC at all time points investigated
- BTZ-043 concentration in the whole section above the MIC ([2]; lung cryosections, 4 and 8 h): at least 100 x
- Papp A→B at 120 min [3]: 9.44 to 11.3 ×10⁻⁶ cm/s
- Papp at 120 min, 4 µg/mL [3]: 11.3 ×10⁻⁶ cm/s
- efflux ratio at 120 min, 1 µg/mL [3]: 0.73
- efflux ratio at 120 min, 4 µg/mL [3]: 1.14
- Concentration (Caco-2 cell monolayers [4]; BTZ-043 4 μg mL^-1, replicates 1-3): 124.355 ng/mL
- Calculated Amount (Caco-2 cell monolayers [4]; BTZ-043 (4 µg mL^-1), compartment baso): 124.355
- finding at necropsy (BTZ-043 treated mice, most pronounced at the highest dose for 8 weeks): enlarged stomachs
- health status of drug treated mice at high treatment doses (dose escalation study, BALB/c): did not observe any indication that could point to adverse side effects
- permeability classification (Caco-2 cell monolayers [5]): permeable drug
- transport mechanism indicated by efflux ratios (Caco-2 cell monolayers [5]): passive diffusion is dominant over active transport mechanisms
- pulmonary CFU / mouse (Mtb H37Rv; BTZ-043 [250 mg/kg], 2 weeks of therapy, individual mice, female and male, 250 mg/kg): 22635294 CFU / mouse and 34160000 CFU / mouse and 22750000 CFU / mouse and 19564286 CFU / mouse and 20000000 CFU / mouse
- reduction of the bacterial load versus start of treatment (Mtb H37Rv; IL-13tg mice lungs, 250 mg/kg/day, 10 days): 0.9 log10 CFU
- reduction of the bacterial burden (Mtb H37Rv; IL-13tg mice lungs, 250 mg/kg/day, 10 days, versus before treatment): 86%
- bacterial burden after therapy as share of the initial CFU counts (Mtb H37Rv; [11]): 13.8%
- mean pulmonary bacterial burden after treatment (Mtb H37Rv; [11]): 4.8 × 10^7 CFU
- pulmonary bacterial burden after therapy (Mtb H37Rv; IL-13tg mice, 250 mg/kg/day, 10 days, mean): 7.69 log10 CFU
- pulmonary CFU counts / mouse (Mtb H37Rv; IL-13tg mice, female, 10 days BTZ-043 250 mg/kg, 250 mg/kg): 22032000 and 27394286
- MIC (H37Rv): 1 ng/mL (≈ 2.32 nM)
- AUC at which BTZ-043total exposure reaches saturation [6]: ~30,000 h·ng/mL
- Cmax at which BTZ-043total exposure reaches saturation [6]: around 8000 ng/mL
- Tmax [6]: 30 to 60 min
- AUCinf ([6]; po, 2.5 mg/kg/day): 666 ng·h/mL
- Cmax ([6]; po, 2.5 mg/kg/day): 520 ng/mL
- Tmax ([6]; po, 2.5 mg/kg/day): 30 min
- AUCinf ([6]; po, 5 mg/kg/day): 1,360 h·ng/mL
- Cmax ([6]; po, 5 mg/kg/day): 1,050 ng/mL
- Tmax ([6]; po, 5 mg/kg/day): 30 min
- AUCinf ([6]; po, 50 mg/kg/day): 14,700 h·ng/mL
- Cmax ([6]; po, 50 mg/kg/day): 8070 ng/mL
- Tmax ([6]; po, 50 mg/kg/day): 30 min
- concentration at 4 h ([7]; TB granulomas laser-dissected from lung cryosections, 250 mg/kg, 4 h after administration, assumed tissue density 1 g/mL, read-out: mean BTZ-043 concentration within TB granulomas): 570 ng/mL
- concentration at 4 h ([7]; lung, laser-dissected necrotic granuloma, 250 mg/kg, LCM flakes from granulome area (granuloma), IL-13tg mouse lung cryosections, 4h post administration, read-out: ng/mg lung tissue, technical replicate 2): 495 ng/g
- concentration at 4 h ([7]; lung, laser-dissected necrotic granuloma, 250 mg/kg, LCM flakes from granulome area (granuloma), mean of 2 technical replicates, 4h post administration, read-out: ng/mg lung tissue, Mean): 430 ng/g
- concentration at 4 h ([7]; lung, whole cryosection, 250 mg/kg, whole cryosection from OT207 (QC, internal control), 4h post administration, read-out: ng/mg lung tissue, technical replicate 1): 779 ng/g
- concentration at 4 h ([7]; lung, whole cryosection, 250 mg/kg, whole cryosection from OT207 (QC, internal control), 4h post administration, read-out: ng/mg lung tissue, technical replicate 2): 846 ng/g
- concentration at 4 h ([7]; lung, whole cryosection, 250 mg/kg, whole cryosection from OT207 (QC, internal control), mean of 2 technical replicates, 4h post administration, read-out: ng/mg lung tissue, Mean): 810 ng/g
- concentration at 4 h ([7]; necrotic granulomas laser-dissected from lung cryosections, 250 mg/kg/day, IL-13tg mouse, 250 mg/kg/day 10 days, 4 h after application, read-out: mean BTZ-043 concentration in necrotic granulomas): 570 ng/g
- concentration at 4 h ([7]; non-necrotic regions laser-dissected from lung cryosections, 250 mg/kg/day, IL-13tg mouse, 250 mg/kg/day 10 days, 4 h after application, read-out: mean BTZ-043 concentration in non-necrotic regions): 340 ng/g
- concentration at 4 h ([7]; 250 mg/kg, LCM flakes from adjacent area (non necrotic), 4h post administration, read-out: ng/mg lung tissue, technical replicate 1): 388 ng/g
- concentration at 4 h ([7]; 250 mg/kg, LCM flakes from adjacent area (non necrotic), 4h post administration, read-out: ng/mg lung tissue, technical replicate 2): 371 ng/g
- concentration at 4 h ([7]; 250 mg/kg, LCM flakes from adjacent area (non necrotic), mean of 2 technical replicates, 4h post administration, read-out: ng/mg lung tissue, Mean): 380 ng/g
- ng/mg lung tissue, technical replicate 1 [7, 12]: 0.303 ng/mg lung tissue and 0.478 ng/mg lung tissue
- ng/mg lung tissue, technical replicate 2 [7, 12]: 0.299 ng/mg lung tissue and 0.205 ng/mg lung tissue
- ng/mg lung tissue, Mean ([7]; LCM flakes from adjacent area (non necrotic), mean of 2 technical replicates, 4h post administration, listed as BTZ): 0.30 ng/mg lung tissue and 0.34 ng/mg lung tissue
- ng/mg lung tissue, Mean ([7]; LCM flakes from granulome area (granuloma), mean of 2 technical replicates, 4h post administration, listed as BTZ): 0.66 ng/mg lung tissue and 0.65 ng/mg lung tissue
- Papp B→A at 120 min (in vitro; Caco-2): 6.9 to 12.9 ×10⁻⁶ cm/s
- Papp at 120 min, 1 µg/mL (in vitro; Caco-2, Mean Papp): 9.44 ×10⁻⁶ cm/s
- Papp at 120 min, 4 µg/mL (in vitro; Caco-2, Mean Papp): 12.9 ×10⁻⁶ cm/s
- bactericidal activity (Mtb [8]; 4 weeks of treatment): profound bactericidal activity
- effect on bacterial burden (Mtb [8]; two weeks): hardly reduced the bacterial burden
- concentration at 0.5 h (in vivo; both, lung (cryosections)): 1120 ± 190 ng/g
- concentration at 2 h (in vivo; both, lung (cryosections)): 910 ± 150 ng/g
- concentration at 8 h (in vivo; both, lung (cryosections)): 270 ng/mL
- concentration at 4 h (in vivo; female, lung cryosection): 780 ng/g
- concentration at 8 h (in vivo; female, lung cryosection): 260 ng/g
- concentration at 2 h (in vivo; female, lung cryosections): 1090 ng/g
- concentration at 2 h (in vivo; male, lung cryosection): 950 ng/g
- concentration at 0.5 h (in vivo; male, lung cryosections): 1280 ng/g
- concentration at 4 h (in vivo; male, lung cryosections): 1380 ng/g
- concentration at 8 h (in vivo; male, lung cryosections): 730 ng/g
- caseum activity assay result (Mtb [9]): negative
- CFU / mm3 (MBLA) (Mtb [10]; 2 weeks of therapy): 322664 CFU / mm3 and 2329437 CFU / mm3
- CFU / mm3 (MBLA) (Mtb [10]; 4-6 weeks of therapy): 228171 CFU / mm3 and 91947 CFU / mm3 and 205657 CFU / mm3
- Mtb 16S rRNA expression in the necrotic center compared to the vehicle group (Mtb [10]; IL-13tg mice, 250 mg/kg 5 times a week, 2 weeks of treatment): decreased
- bacterial load in the necrotic center (Mtb [10]; IL-13tg mice, 250 mg/kg 5 times a week, further course of therapy (4 to 6 weeks)): strongly reduced
- reduction of bacterial burden in necrotic areas of granulomas (Mtb 16S rRNA) (Mtb [10]; IL-13tg mice, LCM-isolated necrotic areas): 2 log10
